Data taken from patent publication US7687465B2, “Therapeutic cancer vaccine” (Kraeftens Bekaempelse, priority 2003, dated 2010).

Tested on: PBL from HLA-A3 antigen positive melanoma patients
Assay: ELISPOT in PBL from HLA-A3 antigen positive melanoma patients
Format: cell-based, human
Method: T-cell response against the ML-IAP245-253 ([…]) peptide as measured in an ELISPOT in PBL from 14 melanoma patients. T-lymphocytes were stimulated once with peptide before plated in triplicates either without or with peptide. The average number of peptide specific cells (after subtraction of spots without added peptide) was calculated for each patient as the number of spot forming cells per 10^5 CD8 positive cells after subtraction of the number of background spots formed without addition of peptide using the ImmunoSpot® Series 2.0 Analyzer (CTL Analyzers, LLC, Cleveland, US).
To extend the sensitivity of the ELISPOT assay, PBL were stimulated once in vitro prior to analysis^17,18. At day 0, PBL or crushed lymph nodes were thawed and plated in 2 ml/well at a concentration of 2×10^6 cells in 24-well plates (Nunc, Denmark) in X-vivo medium (Bio Whittaker, Walkersville, Md.), 5% heat-inactivated human serum, and 2 mM of L-glutamine in the presence of 10 μM of peptide. […]
The ELISPOT assay used to quantify peptide epitope-specific interferon-γ-releasing effector cells was performed as described previously^19. […] The spots were counted using the AlphaImager System (Alpha Innotech, San Leandro, Calif. USA) and the peptide specific CTL frequency could be calculated from the numbers of spot-forming cells. […]

Sequence: RLQEERTCK (listed as Homo sapiens) [mL-IAP245-253]
- peptide specific T-cells per 10^5 CD8+ cells (in the five responding patients): more than 200 per 10^5 CD8+ cells
- patients hosting an immune response against the peptide (of 14 HLA-A3 antigen positive melanoma patients, response of more than 200 specific T-cells per 10^5 CD8+ cells): five
